Source: patent US6737383B1, “Herbicidal oxadiazolidines” (priority 1999, dated 2004)

Key:
[1] = test system: bamyardgrass; experiment: Test B flood test barnyardgrass; type: in vivo, Echinochloa crus-galli
Method in brief: (§1)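 Each value is a visual injury score relative to controls, with 10 meaning complete control and 0 no effect. Evaluation took place twelve to sixteen days after the 2-leaf-stage plants were treated and kept in the greenhouse.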

[2] = test system: pigweed; experiment: Test B pre/postemergence pigweed; type: in vivo, Amaranthus retroflexus
Method in brief: (§2)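 Herbicidal effect was estimated by eye on a ten-point control scale after plants spent twelve to sixteen days in a greenhouse following soil or foliar treatment. Foliar sprays targeted plants at one to four leaves; all doses were formulated in a non-phytotoxic solvent with surfactant.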

[3] = test system: corn; experiment: Test B pre/postemergence corn; type: in vivo, Zea mays
Method in brief: as §2

[4] = test system: wild oat; experiment: Test B pre/postemergence wild oat; type: in vivo, Avena fatua
Method in brief: as §2

[5] = test system: sugar beet; experiment: Test B pre/postemergence sugar beet; type: in vivo, Beta vulgaris
Method in brief: as §2

[6] = test system: rice; experiment: Test B flood test rice; type: in vivo, Oryza sativa
Method in brief: as §1

[7] = test system: crabgrass; experiment: Test B pre/postemergence crabgrass; type: in vivo, Digitaria sanguinalis
Method in brief: as §2

[8] = test system: surinam grass; experiment: Test B pre/postemergence surinam grass; type: in vivo, Brachiaria decumbens
Method in brief: as §2

[9] = test system: velvetleaf; experiment: Test B pre/postemergence velvetleaf; type: in vivo, Abutilon theophrasti
Method in brief: as §2

[10] = test system: giant foxtail; experiment: Test B pre/postemergence giant foxtail; type: in vivo, Setaria faberii
Method in brief: as §2

[11] = test system: rape; experiment: Test B pre/postemergence rape; type: in vivo, Brassica napus
Method in brief: as §2

[12] = test system: smallflower flatsedge; experiment: Test B flood test smallflower flatsedge; type: in vivo, Cyperus difformis
Method in brief: as §1

[13] = test system: blackgrass; experiment: Test B pre/postemergence blackgrass; type: in vivo, Alopecurus myosuroides
Method in brief: as §2

[14] = test system: cocklebur; experiment: Test B pre/postemergence cocklebur; type: in vivo, Xanthium strumarium
Method in brief: as §2

[15] = test system: morningglory; experiment: Test B pre/postemergence morningglory; type: in vivo, Ipomoea hederacea
Method in brief: as §2

[16] = test system: bedstraw; experiment: Test B pre/postemergence bedstraw; type: in vivo, Galium aparine
Method in brief: as §2

[17] = Rate 62 g/ha, flood test species, Pre-emergence, visual evaluation after twelve to sixteen days
[18] = Rate 125 g/ha, under heading Pre-emergence, flood test species, visual evaluation after twelve to sixteen days
[19] = Rate 250 g/ha, Pre-emergence (flood test species), scale 0 to 10, 0 is no effect, 10 is complete control
[20] = Rate 500 g/ha, Pre-emergence section of Table B, 0 to 10 scale (0 no effect, 10 complete control)
[21] = Postemergence, Rate 62 g/ha, scale 0 to 10, 0 is no effect, 10 is complete control
[22] = Postemergence, Rate 125 g/ha, scale of 0 to 10 where 0 is no effect and 10 is complete control
[23] = Postemergence, Rate 250 g/ha, scale of 0 to 10, 0 is no effect, 10 is complete control
[24] = Preemergence, Rate 62 g/ha, scale 0 to 10 (0 no effect, 10 complete control)
[25] = Preemergence, Rate 125 g/ha, scale of 0 to 10 where 0 is no effect and 10 is complete control
[26] = Preemergence, Rate 250 g/ha, scale 0 to 10 (0 no effect, 10 complete control)
[27] = Preemergence, Rate 500 g/ha, scale of 0 to 10 where 0 is no effect and 10 is complete control
[28] = Postemergence, Rate 500 g/ha, scale of 0 to 10 where 0 is no effect and 10 is complete control

CCOC(Cn1c(=O)on(C(=O)N(c2ccc(F)cc2F)C(C)C)c1=O)OCC [Compound 630]
10: Plant response rating, Redroot pigweed [2, 26] | Plant response rating, Redroot pigweed [2, 27] | Giant foxtail plant response rating [10, 25] | Plant response rating, Giant foxtail [10, 26] | Plant response rating, Giant foxtail [10, 27] | Plant response rating, Blackgrass [13, 27]
6: Plant response rating, Velvetleaf [9, 26]
0: Plant response rating, Barnyardgrass (0 to 10 scale, 0 is no effect, 10 is complete control) [1, 17] | Barnyardgrass plant response rating (0 to 10 scale, 0 is no effect, 10 is complete control) [1, 18] | Barnyardgrass plant response rating [1, 19] | Barnyardgrass plant response rating [1, 20] | Plant response rating, Redroot pigweed [2, 21] | Plant response rating, Redroot pigweed [2, 22] | Plant response rating, Corn [3, 21] | Plant response rating, Corn [3, 22] | Corn plant response rating [3, 24] | Corn plant response rating [3, 25] | Plant response rating, Wild oats [4, 21] | Plant response rating, Wild oats [4, 22] | Wild oats plant response rating [4, 23] | Wild oats plant response rating [4, 24] | Plant response rating, Sugarbeets [5, 21] | Plant response rating, Sugarbeets [5, 22] | Sugarbeets plant response rating [5, 23] | Sugarbeets plant response rating [5, 24] | Plant response rating, Rice (0 to 10 scale, 0 is no effect, 10 is complete control) [6, 17] | Rice plant response rating (0 to 10 scale, 0 is no effect, 10 is complete control) [6, 18] | Rice plant response rating [6, 19] | Rice plant response rating [6, 20] | Plant response rating, B. signalgrass [8, 21] | Plant response rating, B. signalgrass [8, 22] | B. signalgrass plant response rating [8, 24] | Plant response rating, Velvetleaf [9, 21] | Velvetleaf plant response rating [9, 24] | Plant response rating, Rape [11, 21] | Plant response rating, Rape [11, 22] | Rape plant response rating [11, 23] | Rape plant response rating [11, 24] | Rape plant response rating [11, 25] | Plant response rating, Rape [11, 26] | Plant response rating, Rape [11, 27] | Plant response rating, S. Flatsedge (0 to 10 scale, 0 is no effect, 10 is complete control) [12, 17] | S. Flatsedge plant response rating (0 to 10 scale, 0 is no effect, 10 is complete control) [12, 18] | S. Flatsedge plant response rating [12, 19] | S. Flatsedge plant response rating [12, 20] | Plant response rating, Blackgrass [13, 21] | Plant response rating, Blackgrass [13, 22] | Plant response rating, Cocklebur [14, 21] | Plant response rating, Cocklebur [14, 22] | Cocklebur plant response rating [14, 23] | Plant response rating, Cocklebur [14, 28] | Cocklebur plant response rating [14, 24] | Cocklebur plant response rating [14, 25] | Plant response rating, Cocklebur [14, 27] | Morningglory plant response rating [15, 24] | Morningglory plant response rating [15, 25] | Plant response rating, Morningglory [15, 26] | Plant response rating, Bedstraw [16, 21] | Bedstraw plant response rating [16, 24] | Bedstraw plant response rating [16, 25] | Plant response rating, Bedstraw [16, 26]
8: Plant response rating, Wild oats [4, 26] | Plant response rating, Wild oats [4, 27] | Crabgrass plant response rating [7, 23] | Crabgrass plant response rating [7, 25] | Plant response rating, B. signalgrass [8, 27] | Giant foxtail plant response rating [10, 23] | Blackgrass plant response rating [13, 25] | Plant response rating, Blackgrass [13, 26]
7: Plant response rating, Sugarbeets [5, 27] | Crabgrass plant response rating [7, 24] | Plant response rating, B. signalgrass [8, 26] | Plant response rating, Velvetleaf [9, 27] | Plant response rating, Giant foxtail [10, 22] | Plant response rating, Bedstraw [16, 27]
5: Plant response rating, Corn [3, 28] | Plant response rating, Corn [3, 27] | Plant response rating, Crabgrass [7, 22] | Blackgrass plant response rating [13, 24]
3: Plant response rating, Corn [3, 26] | Wild oats plant response rating [4, 25] | Plant response rating, B. signalgrass [8, 28] | B. signalgrass plant response rating [8, 25] | Blackgrass plant response rating [13, 23]
2: Redroot pigweed plant response rating [2, 24] | Corn plant response rating [3, 23] | Plant response rating, Giant foxtail [10, 21] | Plant response rating, Morningglory [15, 22] | Morningglory plant response rating [15, 23] | Plant response rating, Morningglory [15, 27]
9: Redroot pigweed plant response rating [2, 25] | Plant response rating, Crabgrass [7, 26] | Plant response rating, Crabgrass [7, 27] | Plant response rating, Giant foxtail [10, 28] | Giant foxtail plant response rating [10, 24] | Plant response rating, Blackgrass [13, 28]
1: Redroot pigweed plant response rating [2, 23] | Plant response rating, Crabgrass [7, 21] | B. signalgrass plant response rating [8, 23] | Velvetleaf plant response rating [9, 25] | Plant response rating, Morningglory [15, 21]
4: Sugarbeets plant response rating [5, 25] | Plant response rating, Sugarbeets [5, 26] | Plant response rating, Velvetleaf [9, 22] | Velvetleaf plant response rating [9, 23] | Plant response rating, Rape [11, 28] | Plant response rating, Morningglory [15, 28]
